According to US5225607A, “Insecticidal ethers” (Imperial Chemical Industries PLC, priority 1985, dated 1993):

Key:
Assay type in all cases: in vivo
[1] = Insecticidal evaluation of fraction 1 and fraction 3 (resolved isomers); conditions: fraction 1 (92.9% isomer A) against fraction 3
Protocol: (±)-1,1,1-trifluoro-2-(4-ethoxyphenyl)-3-(3-phenoxybenzyloxy)propane was resolved by high pressure liquid chromatography, using a Pirkle type 1A column (25 cm×4.9 mm) at -20° C., and n-hexane containing 1% by volume chloroform as eluent, at a flow rate of 0.7 cm^3 /minute. Elution was monitored using a UV detector at […]. Two isomers were detected:isomer A (retention time ca. 51 minutes) and isomer B (retention time ca. 54.6 minutes). A total of three fractions were collected.

Tetranychus urticae = assay: Insecticidal/acaricidal test, Tetranychus urticae (spider mites - adult), contact; conditions: 72 h, French bean leaf, 3 days, read-out: grading of mortality, TU
In short: (§1)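 Acetone solution diluted in water + 0.01% wetting agent; 500/250/100 ppm. Treat pests and/or host plant/food medium. Read mortality/knockdown day 1–3. Grades: A 80–100% (S. exigua 70–100%), B 50–79% (50–69%), C <50%.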

Myzus persicae = assay: Insecticidal test, Myzus persicae (aphids), contact; conditions: 72 h, Chinese Cabbage leaf, 3 days, read-out: grading of mortality, MP
In short: as §1

Nilaparvata lugens = assay: Insecticidal test, Nilaparvata lugens (brown planthopper), contact; conditions: 72 h, Cabbage leaf, 3 days, read-out: grading of mortality, NL
In short: as §1

Musca domestica [2] = assay: Knockdown test, Musca domestica (houseflies - adults); conditions: cotton wool/sugar, 4 hours, read-out: grading of knockdown, MD/KD
In short: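 Adult houseflies were exposed to the compound as aqueous acetone preparations with 0.01% Lissapol NX wetting agent, at 500, 250 or 100 ppm. Knockdown was graded A (80–100%), B (50–79%) or C (<50%).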

Musca domestica [3] = assay: Insecticidal test, Musca domestica (houseflies - adults), contact; conditions: 24 h, cotton wool/sugar, 1 day, read-out: grading of mortality, MD
In short: as §1

Blattella germanica = assay: Insecticidal test, Blattella germanica (cockroach nymphs), residual; conditions: 72 h, plastic pot, 3 days, read-out: grading of mortality, BG
In short: as §1

Heliothis virescens = assay: whole plant or invertebrate; conditions: in Gossypium hirsutum, 72 h, read-out: grading of mortality, HV
In short: as §1

Spodoptera exigua = assay: Insecticidal test, Spodoptera exigua (lesser armyworm), residual; conditions: 72 h, cotton leaf, 3 days, read-out: grading of mortality, SE
In short: as §1

Diabrotica balteata = assay: Insecticidal test, Diabrotica balteata (rootworm larvae), residual; conditions: 72 h, filter paper/maize seed, 3 days, read-out: grading of mortality, DB
In short: as §1

## CCOc1ccc(C(COCc2cccc(Oc3ccccc3)c2)C(F)(F)F)cc1 (single isomer, unassigned) [isomer A, (+)-1,1,1-trifluoro-2-(4-ethoxyphenyl)-3-(3-p-henoxybenzyloxy)-propane]
[1]
  insecticidal activity of isomer A relative to isomer B: substantially more active than isomer B

## OC(COCc1cccc(Oc2ccc(Cl)cc2)c1)(c1ccc(OC(F)(F)F)cc1)C(F)(F)F (stereo not shown) [Compound 135, 1,1,1-Trifluoro-2-(4-trifluoromethoxyphenyl)-3-(3-(4-chlorophenoxy)benzyloxy)propan-2-ol]
Tetranychus urticae; 250 ppm
  mortality at 250 ppm: < 50%
Myzus persicae; 250 ppm
  mortality at 250 ppm: < 50%
Nilaparvata lugens; 250 ppm
  mortality at 250 ppm: < 50%
Musca domestica [2]; 250 ppm
  pest or weed control at 250 ppm: 80 to 100%
Musca domestica [3]; 250 ppm
  mortality at 250 ppm: < 50%
Blattella germanica; 250 ppm
  mortality at 250 ppm: < 50%
Heliothis virescens
  mortality at 250 ppm: 80 to 100%
Spodoptera exigua; 250 ppm
  mortality at 250 ppm: 70 to 100%
Diabrotica balteata; 250 ppm
  mortality at 250 ppm: < 50%

## OC(COCc1cccc(Oc2ccccc2)n1)(c1ccc(OC(F)(F)F)cc1)C(F)(F)F (stereo not shown) [Compound 136, 1,1,1-Trifluoro-2-(4-trifluoromethoxyphenyl)-3-(6-phenoxy-2-pyridylmethyloxy)propan-2-ol]
Tetranychus urticae
  mortality at 500 ppm: < 50%
Myzus persicae
  mortality at 500 ppm: < 50%
Nilaparvata lugens
  mortality at 500 ppm: < 50%
Musca domestica [2]
  pest or weed control at 500 ppm: 80 to 100%
Musca domestica [3]
  mortality at 500 ppm: 80 to 100%
Blattella germanica
  mortality at 500 ppm: < 50%
Heliothis virescens
  mortality at 500 ppm: 50 to 79%
Spodoptera exigua
  mortality at 500 ppm: < 50%
Diabrotica balteata
  mortality at 500 ppm: 80 to 100%

## OC(COCc1cccc(Oc2ccccc2)c1)(c1ccc(C(F)(F)F)cc1)C(F)(F)F (stereo not shown) [Compound 137, 1,1,1-Trifluoro-2-(4-trifluoromethylphenyl)-3-(3-phenoxybenzyloxy)propan-2-ol]
Tetranychus urticae
  mortality at 500 ppm: < 50%
Myzus persicae
  mortality at 500 ppm: 80 to 100%
Nilaparvata lugens
  mortality at 500 ppm: < 50%
Musca domestica [2]
  pest or weed control at 500 ppm: < 50%
Musca domestica [3]
  mortality at 500 ppm: < 50%
Blattella germanica
  mortality at 500 ppm: < 50%
Heliothis virescens
  mortality at 500 ppm: < 50%
Spodoptera exigua
  mortality at 500 ppm: 70 to 100%
Diabrotica balteata
  mortality at 500 ppm: < 50%

## Fc1ccc(COC=C(c2ccc(OC(F)(F)F)cc2)C(F)(F)F)cc1Oc1ccccc1 [Compound 462, 1,1,1-trifluoro-2-(4-trifluoromethoxyphenyl)-3-(3-phenoxy-4-fluorobenzyloxy)prop-2-ene]
Tetranychus urticae; 100 ppm
  mortality at 100 ppm: < 50%
Myzus persicae; 100 ppm
  mortality at 100 ppm: < 50%
Nilaparvata lugens; 100 ppm
  mortality at 100 ppm: < 50%
Musca domestica [2]; 100 ppm
  pest or weed control at 100 ppm: 80 to 100%
Musca domestica [3]; 100 ppm
  mortality at 100 ppm: 80 to 100%
Blattella germanica; 100 ppm
  mortality at 100 ppm: 80 to 100%
Heliothis virescens
  mortality at 100 ppm: 80 to 100%
Spodoptera exigua; 100 ppm
  mortality at 100 ppm: 70 to 100%
Diabrotica balteata; 100 ppm
  mortality at 100 ppm: 50 to 79%
